Assay results reported in ChEMBL document CHEMBL5291721, “A preclinical secondary pharmacology resource illuminates target-adverse drug reaction associations of marketed drugs” (Nat Commun, 2023).

Columns and labels:
[1] = biological target: 5-hydroxytryptamine receptor 2B (Homo sapiens, UniProt P41595)
[2] = biological target: T1, Alpha-2A adrenergic receptor (Homo sapiens, UniProt P08913)
T1 sequence (P08913 whole entry): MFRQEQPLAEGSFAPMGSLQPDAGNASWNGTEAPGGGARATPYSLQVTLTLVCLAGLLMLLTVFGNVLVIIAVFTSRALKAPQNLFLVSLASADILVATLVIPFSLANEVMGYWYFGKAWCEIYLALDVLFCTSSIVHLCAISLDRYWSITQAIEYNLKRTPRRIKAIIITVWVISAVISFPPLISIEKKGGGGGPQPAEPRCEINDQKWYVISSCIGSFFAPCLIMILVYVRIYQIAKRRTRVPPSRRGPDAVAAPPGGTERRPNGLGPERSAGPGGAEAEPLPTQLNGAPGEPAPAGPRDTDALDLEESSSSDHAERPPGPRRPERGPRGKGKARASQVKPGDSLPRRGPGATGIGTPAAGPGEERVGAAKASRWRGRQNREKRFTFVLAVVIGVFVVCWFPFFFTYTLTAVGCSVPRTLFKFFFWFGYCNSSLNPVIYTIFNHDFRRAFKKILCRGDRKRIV

[3] = biological target: T2, Alpha-1A adrenergic receptor (Homo sapiens, UniProt P35348); format: functional, cell-based
T2 sequence (P35348 whole entry): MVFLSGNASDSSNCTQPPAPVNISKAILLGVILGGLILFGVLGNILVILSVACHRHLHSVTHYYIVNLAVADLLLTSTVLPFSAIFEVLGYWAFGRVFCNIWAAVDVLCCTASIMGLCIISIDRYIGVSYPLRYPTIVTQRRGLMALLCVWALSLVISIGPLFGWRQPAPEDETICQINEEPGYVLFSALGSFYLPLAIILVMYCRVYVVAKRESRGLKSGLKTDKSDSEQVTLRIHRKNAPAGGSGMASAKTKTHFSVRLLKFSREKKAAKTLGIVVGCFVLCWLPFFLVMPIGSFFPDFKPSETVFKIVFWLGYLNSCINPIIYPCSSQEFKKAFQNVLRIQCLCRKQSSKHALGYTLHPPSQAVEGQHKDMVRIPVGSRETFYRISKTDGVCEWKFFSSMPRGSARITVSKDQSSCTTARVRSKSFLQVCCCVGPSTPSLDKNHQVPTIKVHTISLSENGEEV

[4] = biological target: D(1A) dopamine receptor (Homo sapiens, UniProt P21728)
[5] = biological target: T2, Alpha-1A adrenergic receptor
[6] = biological target: Melanocortin receptor 4 (Homo sapiens, UniProt P32245)
[7] = biological target: Beta-2 adrenergic receptor (Homo sapiens, UniProt P07550); format: functional, cell-based
[8] = biological target: T3, 5-hydroxytryptamine receptor 1A (Homo sapiens, UniProt P08908)
T3 sequence (P08908 whole entry): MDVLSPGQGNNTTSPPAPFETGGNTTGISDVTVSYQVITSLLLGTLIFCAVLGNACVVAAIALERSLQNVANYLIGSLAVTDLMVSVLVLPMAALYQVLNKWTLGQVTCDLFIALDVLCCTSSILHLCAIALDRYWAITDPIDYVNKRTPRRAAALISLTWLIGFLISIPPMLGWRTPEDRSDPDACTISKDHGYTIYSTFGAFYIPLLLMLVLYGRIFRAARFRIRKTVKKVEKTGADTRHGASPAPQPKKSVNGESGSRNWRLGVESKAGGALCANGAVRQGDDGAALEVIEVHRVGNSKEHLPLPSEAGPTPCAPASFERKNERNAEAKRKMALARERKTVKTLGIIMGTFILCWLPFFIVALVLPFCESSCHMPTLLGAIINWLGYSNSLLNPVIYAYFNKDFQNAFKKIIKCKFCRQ

[9] = biological target: 5-hydroxytryptamine receptor 2A (Homo sapiens, UniProt P28223)
[10] = biological target: T4, Androgen receptor (Rattus norvegicus, UniProt P15207); format: functional
T4 sequence (P15207 whole entry): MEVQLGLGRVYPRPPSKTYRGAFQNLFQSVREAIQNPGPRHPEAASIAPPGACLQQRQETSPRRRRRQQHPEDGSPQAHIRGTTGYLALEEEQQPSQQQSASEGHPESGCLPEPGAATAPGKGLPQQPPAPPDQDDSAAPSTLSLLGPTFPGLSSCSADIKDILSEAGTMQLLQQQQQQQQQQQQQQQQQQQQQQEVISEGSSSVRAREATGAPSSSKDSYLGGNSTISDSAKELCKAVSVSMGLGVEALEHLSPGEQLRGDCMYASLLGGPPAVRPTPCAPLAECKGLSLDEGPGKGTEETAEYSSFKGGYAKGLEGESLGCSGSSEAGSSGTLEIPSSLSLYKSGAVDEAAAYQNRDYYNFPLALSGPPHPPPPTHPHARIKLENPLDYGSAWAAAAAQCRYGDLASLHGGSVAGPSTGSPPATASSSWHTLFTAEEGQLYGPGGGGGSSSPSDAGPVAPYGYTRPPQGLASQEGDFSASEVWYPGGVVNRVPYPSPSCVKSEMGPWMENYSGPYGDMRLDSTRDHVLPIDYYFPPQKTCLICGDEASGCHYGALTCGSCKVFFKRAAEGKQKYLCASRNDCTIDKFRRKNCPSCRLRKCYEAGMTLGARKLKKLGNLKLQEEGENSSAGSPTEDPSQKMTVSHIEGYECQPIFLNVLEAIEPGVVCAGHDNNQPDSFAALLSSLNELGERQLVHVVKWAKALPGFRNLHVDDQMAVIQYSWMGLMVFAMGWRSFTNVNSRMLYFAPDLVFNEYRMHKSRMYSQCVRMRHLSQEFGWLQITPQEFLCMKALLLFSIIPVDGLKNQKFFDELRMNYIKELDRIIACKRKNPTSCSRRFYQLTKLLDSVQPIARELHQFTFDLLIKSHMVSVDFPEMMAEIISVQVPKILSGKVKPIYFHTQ
Note: assay procedure not described here.

Sequence of Melanocortin receptor 4 (P32245 whole entry): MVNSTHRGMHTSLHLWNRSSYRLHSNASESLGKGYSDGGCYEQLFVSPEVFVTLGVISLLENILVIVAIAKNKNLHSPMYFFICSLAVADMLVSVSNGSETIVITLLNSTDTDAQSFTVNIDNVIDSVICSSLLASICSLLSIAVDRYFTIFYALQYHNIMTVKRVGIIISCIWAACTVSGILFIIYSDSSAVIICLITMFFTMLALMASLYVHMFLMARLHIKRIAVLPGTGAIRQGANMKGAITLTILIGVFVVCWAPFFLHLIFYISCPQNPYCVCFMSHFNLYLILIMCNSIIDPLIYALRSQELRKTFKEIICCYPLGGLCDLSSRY
Sequence of Beta-2 adrenergic receptor (P07550 whole entry): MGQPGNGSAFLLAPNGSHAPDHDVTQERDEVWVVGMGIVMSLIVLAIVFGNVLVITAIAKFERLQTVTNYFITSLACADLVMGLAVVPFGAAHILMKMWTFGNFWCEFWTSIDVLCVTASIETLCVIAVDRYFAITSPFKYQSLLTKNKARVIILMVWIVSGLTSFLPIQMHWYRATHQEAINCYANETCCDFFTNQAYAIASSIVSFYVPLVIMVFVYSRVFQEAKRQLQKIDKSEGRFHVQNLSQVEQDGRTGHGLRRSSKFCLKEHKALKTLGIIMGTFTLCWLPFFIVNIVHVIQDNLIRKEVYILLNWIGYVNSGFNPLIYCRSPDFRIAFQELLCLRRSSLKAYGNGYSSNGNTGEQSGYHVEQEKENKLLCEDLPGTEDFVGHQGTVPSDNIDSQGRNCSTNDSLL
Sequence of 5-hydroxytryptamine receptor 2A (P28223 whole entry): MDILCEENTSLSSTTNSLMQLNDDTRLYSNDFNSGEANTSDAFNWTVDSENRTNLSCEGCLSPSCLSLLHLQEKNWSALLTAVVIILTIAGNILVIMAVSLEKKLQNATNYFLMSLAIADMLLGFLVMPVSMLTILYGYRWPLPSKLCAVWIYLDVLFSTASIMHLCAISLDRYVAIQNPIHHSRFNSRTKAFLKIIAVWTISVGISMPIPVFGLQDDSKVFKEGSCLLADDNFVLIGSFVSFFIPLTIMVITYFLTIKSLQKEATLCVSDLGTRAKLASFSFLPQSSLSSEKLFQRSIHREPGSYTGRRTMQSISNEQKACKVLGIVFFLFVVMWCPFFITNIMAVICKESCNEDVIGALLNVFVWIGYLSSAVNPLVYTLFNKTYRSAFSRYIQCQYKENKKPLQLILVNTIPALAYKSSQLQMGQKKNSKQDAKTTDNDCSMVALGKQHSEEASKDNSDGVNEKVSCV
Sequence of 5-hydroxytryptamine receptor 2B (P41595 whole entry): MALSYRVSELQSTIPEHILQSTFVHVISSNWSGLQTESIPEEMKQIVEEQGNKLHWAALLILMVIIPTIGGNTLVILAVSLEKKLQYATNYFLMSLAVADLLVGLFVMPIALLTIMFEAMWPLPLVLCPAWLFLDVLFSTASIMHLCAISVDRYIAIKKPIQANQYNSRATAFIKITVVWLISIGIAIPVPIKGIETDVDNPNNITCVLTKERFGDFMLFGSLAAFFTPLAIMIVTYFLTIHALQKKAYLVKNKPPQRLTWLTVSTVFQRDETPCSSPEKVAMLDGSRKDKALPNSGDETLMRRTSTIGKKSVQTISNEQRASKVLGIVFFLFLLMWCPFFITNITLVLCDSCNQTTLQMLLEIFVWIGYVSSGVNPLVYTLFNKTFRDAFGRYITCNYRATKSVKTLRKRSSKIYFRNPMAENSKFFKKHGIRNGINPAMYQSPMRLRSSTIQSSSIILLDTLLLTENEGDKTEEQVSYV
Sequence of D(1A) dopamine receptor (P21728 whole entry): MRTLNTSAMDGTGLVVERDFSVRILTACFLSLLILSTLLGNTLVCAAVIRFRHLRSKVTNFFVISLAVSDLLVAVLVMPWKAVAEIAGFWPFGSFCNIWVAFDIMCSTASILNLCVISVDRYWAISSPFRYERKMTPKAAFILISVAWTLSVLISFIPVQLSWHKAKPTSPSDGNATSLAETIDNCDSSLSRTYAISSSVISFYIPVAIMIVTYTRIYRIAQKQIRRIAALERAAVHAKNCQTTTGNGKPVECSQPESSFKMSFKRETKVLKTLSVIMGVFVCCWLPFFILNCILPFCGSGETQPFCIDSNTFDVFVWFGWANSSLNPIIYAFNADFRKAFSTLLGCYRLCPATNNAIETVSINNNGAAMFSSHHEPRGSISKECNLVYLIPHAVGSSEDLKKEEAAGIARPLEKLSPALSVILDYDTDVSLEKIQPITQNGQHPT

Row | SMILES | AC50 [1] [µM] | AC50 [2] [µM] | AC50 [3] [µM] | AC50 [4] [µM] | AC50 [5] [µM] | AC50 [6] [µM] | AC50 [7] [µM] | AC50 [8] [µM] | AC50 [9] [µM] | AC50 [10] [µM]
1 | CNS(=O)(=O)Cc1ccc2[nH]cc(CCN(C)C)c2c1 | 14 | > 10 | > 30 | > 10 | > 30 | > 30 | > 30 |  |  | 
2 | COc1ccccc1N1CCN(CCCNc2cc(=O)n(C)c(=O)n2C)CC1 |  |  | 0.57 |  | 0.0043 |  |  | 0.492 |  | 
3 | CC=CC(=O)N(CC)c1ccccc1C |  |  | > 30 |  | > 10 | > 10 |  |  |  | 
4 | NCC(=O)CCC(=O)O [AMINOLEVULINIC ACID] |  |  | > 30 |  |  |  | > 30 |  |  | 
5 | C=CCC1(CC(C)C)C(=O)NC(=O)NC1=O [BUTALBITAL] |  |  | > 30 |  | > 30 | > 10 |  |  |  | 
6 | CO/N=C(\C(=O)N[C@@H]1C(=O)N2C(C(=O)O)=C(CSc3nnnn3C)CS[C@H]12)c1csc(N)n1 [CEFMENOXIME] |  |  | > 30 |  |  |  | > 30 |  |  | 
7 | O=C(O)C1=C(CSc2nnnn2CS(=O)(=O)O)CS[C@@H]2[C@H](NC(=O)[C@H](O)c3ccccc3)C(=O)N12 [CEFONICID] |  |  | > 30 |  | > 30 | > 30 |  |  |  | 
8 | CCN1CCN(C(=O)N[C@@H](C(=O)N[C@@H]2C(=O)N3C(C(=O)O)=C(CSc4nnnn4C)CS[C@H]23)c2ccc(O)cc2)C(=O)C1=O [CEFOPERAZONE] |  |  |  |  |  |  | > 30 |  |  | 
9 | COc1ccc2c3c1O[C@H]1[C@@H](O)C=C[C@H]4[C@@H](C2)N(C)CC[C@@]341 [CODEINE] | > 10 | > 10 | > 30 | > 10 | > 10 | > 30 |  | > 10 | > 10 | 
10 | C#C[C@]1(O)CC[C@H]2[C@@H]3CCC4=Cc5oncc5C[C@]4(C)[C@H]3CC[C@@]21C [DANAZOL] |  |  | > 30 |  | > 10 | > 10 | > 30 |  |  | 
11 | CC1(C)O[C@@H]2C[C@H]3[C@@H]4CCC5=CC(=O)C=C[C@]5(C)[C@H]4[C@@H](O)C[C@]3(C)[C@]2(C(=O)CO)O1 [DESONIDE] |  |  | > 30 |  | > 10 | > 10 | > 30 |  |  | 
12 | CCCCCCOc1ccccc1C(N)=O [EXALAMIDE] | 0.27 |  | > 30 |  |  |  |  |  |  | 
13 | COc1ccc(CCN(C)CCCC(C#N)(c2cc(OC)c(OC)c(OC)c2)C(C)C)cc1OC (stereo not drawn) [GALLOPAMIL] | 0.0819 |  | > 30 |  |  |  | > 30 |  |  | 
14 | CC(C)C(=O)c1c(C(C)C)nn2ccccc12 [IBUDILAST] |  |  | > 30 |  |  |  | > 30 |  |  | 
15 | CC(C)Cn1cnc2c(N)nc3ccccc3c21 [IMIQUIMOD] |  |  |  |  | 5.67 | > 10 |  | > 10 |  | 
16 | CC(C(=O)O)c1ccc(N2Cc3ccccc3C2=O)cc1 (stereo not drawn) [INDOPROFEN] |  |  | > 30 | > 30 | > 30 |  |  |  | > 10 | 
17 | CC(C)(C)c1cc(C(C)(C)C)c(NC(=O)c2c[nH]c3ccccc3c2=O)cc1O [IVACAFTOR] | > 10 | > 10 |  | > 10 | > 10 | 25.6 |  | > 10 | > 10 | 

Row | SMILES | AC50 [1] [µM] | AC50 [2] [µM] | AC50 [3] [µM] | AC50 [4] [µM] | AC50 [5] [µM] | AC50 [6] [µM] | AC50 [7] [µM] | AC50 [8] [µM] | AC50 [9] [µM] | AC50 [10] [µM]
18 | C[C@H](N)[C@H](O)c1cccc(O)c1 [METARAMINOL] | > 30 |  |  |  | 30 | > 10 |  |  | > 10 | 
19 | CCC1(CC)C(=O)NCC(C)C1=O (stereo not drawn) [METHYPRYLON] |  |  |  |  |  |  | > 30 |  |  | > 30
20 | CCOC(=O)[N-]c1cn(N2CCOCC2)n[o+]1 [MOLSIDOMINE] |  |  | > 30 |  |  |  | > 30 |  |  | 
21 | OC(CNCC(O)C1CCc2cc(F)ccc2O1)C1CCc2cc(F)ccc2O1 (stereo not drawn) [NEBIVOLOL] |  |  | 3.1 |  |  |  |  | 0.14 |  | 
22 | CCCc1nc(C(C)(C)O)c(C(=O)OCc2oc(=O)oc2C)n1Cc1ccc(-c2ccccc2-c2nnn[nH]2)cc1 [OLMESARTAN MEDOXOMIL] | > 10 | > 10 | > 30 | > 10 | > 10 | > 50 |  | > 10 | > 10 | 
23 | N#Cc1ccc([C@H]2CCc3cncn32)c(F)c1 [OSILODROSTAT] | > 10 | > 10 |  | > 10 |  | > 10 |  | > 10 |  | 
24 | CCCC(C)C1(CC)C(=O)NC(=O)NC1=O (stereo not drawn) [PENTOBARBITAL] |  |  | > 30 |  | > 30 | > 10 |  |  |  | 
25 | CC[C@@H]1C(=O)OC[C@@H]1Cc1cncn1C [PILOCARPINE] | > 10 | > 10 | > 30 |  | > 10 | > 30 | > 30 | > 10 | 4.72 | 
26 | O=C(O)C[C@H](O)C[C@H](O)/C=C/c1c(C2CC2)nc2ccccc2c1-c1ccc(F)cc1 [PITAVASTATIN] |  |  | > 30 |  | > 10 | > 10 |  |  |  | 
27 | CN1CCC(=C2c3ccccc3CCc3sccc32)CC1 [PIZOTYLINE] |  | 0.577 | 3.32 |  |  | > 30 | > 30 | 0.338 | 0.0002 | 
28 | CCCN(CCC)C(=O)C(CCC(=O)O)NC(=O)c1ccccc1 (stereo not drawn) [PROGLUMIDE] | > 10 | > 10 |  | > 10 | > 30 | > 30 |  | > 10 |  | 
29 | C=CCC1(C(C)CC)C(=O)NC(=O)NC1=O (stereo not drawn) [TALBUTAL] |  |  |  |  | > 10 | > 10 |  |  | > 10 | 
30 | C/C(O)=C(\C#N)C(=O)Nc1ccc(C(F)(F)F)cc1 [TERIFLUNOMIDE] |  |  | 21 |  |  |  | > 30 |  |  | > 30
31 | CN1CCN(CC/C=C2/c3ccccc3Sc3ccc(S(=O)(=O)N(C)C)cc32)CC1 [THIOTHIXENE] | 0.857 | 0.755 | 0.31 | 0.0774 | 0.0244 | > 30 |  |  |  | 
32 | COc1cc2c(N)nc(N3CCN(C(=O)OCC(C)(C)O)CC3)nc2c(OC)c1OC [TRIMAZOSIN] |  |  | 1.2 |  | 1.8 |  | > 30 |  |  | 17
33 | C[C@H](CSC(=O)c1ccccc1)C(=O)N1C[C@@H](Sc2ccccc2)C[C@H]1C(=O)O [ZOFENOPRIL] |  |  |  |  | > 10 | > 10 |  |  |  | 
